# Reference: patent US9796714B2, “Calcium channel agonists” (University of Pittsburgh—Of the Commonwealth System of …, priority 2013, dated 2017)
# Like-named read-outs stand apart in the source and are kept apart here.
# Assays:
# [1] = molecular target: T1, L-type (Cav 1.3) channels (Rattus norvegicus, UniProt P27732); experiment: L-type Ca2+ channel agonist activity, whole-cell perforated patch clamp in tsA-201 cells; assay type: cell-based
# T1 construct: host or cells: tsA-201
# Protocol: For subsequent evaluation of effects on N-, P/Q-, or L-type channels, tsA-201 cells were transiently transfected with Cav2.2, Cav2.1, or Cav1.3, in combination with Cavβ3 and Cavα2β1 (Addgene, Cambridge Mass.) using FuGENE 6 (Life Technologies, Grand Island, N.Y.). All cells were maintained in DMEM supplemented with 10% fetal bovine serum.
# Whole-cell patch clamp recordings of calcium current. […] Briefly, the pipette solution consisted of 70 nM Cs2SO4, 60 mM CsCl, 1 mM MgCl2, 10 mM 4-(2-hydroxyethyl)-1-piperazineethanesulfonic acid (HEPES) at pH 7.4. […] Patch pipettes were fabricated from borosilicate glass and pulled to a resistance of about 1 MΩ. Before each experiment, a stock solution consisting of 3 mg amphotericin-B dissolved into 50 μL anhydrous DMSO was made. […] Capacitive currents and passive membrane responses to voltage commands were subtracted from the data. Currents were amplified by an Axopatch 200B amplifier, filtered at 5 KHz, and digitized at 10 KHz for subsequent analysis using pClamp software (Axon Instruments/Molecular Devices; Sunnyvale, Calif.). […] To measure effects on calcium channel tail currents, the tail current integral was measured before and after application of a derivative, with the integral of each trace being normalized to its peak. All experiments were carried out at room temperature (22° C.). […]
# cdk2 cyclinA(h) = molecular target: T2, cdk2 cyclinA(h) (Homo sapiens, UniProt P24941); experiment: Kinase inhibitory activity (EMD Millipore KinaseProfiler), cdk2; assay type: biochemical
# T2 construct: purchased EMD Millipore KinaseProfiler service (Millipore UK Ltd.)
# Protocol: Kinase inhibitory activity. Kinase inhibitory activities were determined using the EMD Millipore KinaseProfiler™ service (Millipore UK Ltd.). Each compound's kinase inhibitory activity was tested at three different concentrations (0.2 μM, 2 μM, and 20 μM) against five different kinases: Cdk1 cyclinB(h), cdk2 cyclinA(h), cdk5 p35(h), mitogen-activated protein kinase (MAPK1(h)) and myosin light-chain kinase (MLCK(h)).
# Statistical Analysis. […] For the dose-response analyses on Ca^2+ current, each concentration of the four different compounds was tested in 3-6 cells. […] All EC50 and IC50 values and their respective errors were determined by performing 100 iterations of a logistic function curve fit.
# [2] = tested on: LEMS passive transfer mouse NMJs; experiment: Intracellular recordings at LEMS passive transfer mouse NMJs, ex vivo ETA nerve-muscle preparation (Example 3)
# Protocol: LEMS passive transfer. To test GV-58 in a LEMS model NMJ, an established LEMS passive transfer mouse model was utilized. To perform the passive transfer of LEMS, mice were injected with the serum of patients diagnosed with LEMS. […] Each serum sample was tested for the presence of voltage-gated Ca^2+ channel antibodies using a Ca^2+ channel antibody radioimmune assay (Kronus RIA kit, Star, Id.). Control serum was obtained from the University of Pittsburgh Medical Center blood bank. […]; 25-32 g; Charles River Laboratories) were divided into two groups: one group that received LEMS serum, and a control group that received control serum.
# Intracellular recordings at mouse NMJs. […] A thin upper arm muscle, the epitrochleoanconeus (ETA), was chosen for these recordings. […] […]. A train of 10 EPPs was also collected in each muscle fiber using an inter-stimulus interval of 20 msec. To analyze the data, both the amplitudes and the areas under the waveforms (integral) were determined after correcting each digitized point in each trace for non-linear summation. Data were collected and analyzed using an Axoclamp 900A and the pClamp 10 suite of programs (Molecular Devices, Sunnyvale, Calif.).
# Statistical Analysis. […] For the dose-response analyses on Ca^2+ current, each concentration of the four different compounds was tested in 3-6 cells. […]. All EC50 and IC50 values and their respective errors were determined by performing 100 iterations of a logistic function curve fit.
# LEMS model NMJs = experiment: Intracellular recordings at LEMS model mouse NMJs, 13x, DAP and combination (Example 4); conditions: 50 μM 13x, […] DAP, or both
# Protocol: To test this, intracellular microelectrode recordings were performed on ex vivo nerve-muscle preparations taken from LEMS passive-transfer model mice and measured the magnitude of acetylcholine released at the neuromuscular junction. The most sensitive method of quantifying the magnitude of acetylcholine released is to determine the quantal content. Quantal content is defined as the number of neurotransmitter-containing synaptic vesicles that are released from the nerve terminal during a single action potential stimulus. This value was determined by first measuring the area under the average action potential-evoked endplate potential (EPP) and then dividing this value by the area under the average single vesicle release event (miniature endplate potential; mEPP). This value could be compared between experimental groups to provide an accurate measurement of changes in the magnitude of acetylcholine released during a single action potential. Using this approach, the quantal content among five experimental conditions was compared: control NMJs, LEMS NMJs, LEMS NMJs exposed to 50 μM 13x, LEMS NMJs exposed to 1.5 μM DAP, and LEMS NMJs exposed to 50 μM 13x+1.5 μM DAP (FIG. 10). […]; EPP amplitude=10.18±0.62 mV) as compared with control serum treated mouse NMJs (QC=107.5±3.6; EPP amplitude=34.62±1.37 mV; Tarr et al., 2013). […] In fact, this 13x-mediated enhancement was very similar to what was observed after exposure of LEMS model NMJs to 1.5 μM DAP (QC=49.0±4.4; EPP amplitude=17.94±1.381 mV). […]; EPP amplitude=34.62±1.37 mV; Tarr et al., 2013). […] In summary, while either 13x or DAP alone caused about an 80% increase in transmitter release from LEMS model NMJs, the combination of 13x plus DAP caused about a 300% increase in transmitter release.
# T1 sequence (P27732 whole entry): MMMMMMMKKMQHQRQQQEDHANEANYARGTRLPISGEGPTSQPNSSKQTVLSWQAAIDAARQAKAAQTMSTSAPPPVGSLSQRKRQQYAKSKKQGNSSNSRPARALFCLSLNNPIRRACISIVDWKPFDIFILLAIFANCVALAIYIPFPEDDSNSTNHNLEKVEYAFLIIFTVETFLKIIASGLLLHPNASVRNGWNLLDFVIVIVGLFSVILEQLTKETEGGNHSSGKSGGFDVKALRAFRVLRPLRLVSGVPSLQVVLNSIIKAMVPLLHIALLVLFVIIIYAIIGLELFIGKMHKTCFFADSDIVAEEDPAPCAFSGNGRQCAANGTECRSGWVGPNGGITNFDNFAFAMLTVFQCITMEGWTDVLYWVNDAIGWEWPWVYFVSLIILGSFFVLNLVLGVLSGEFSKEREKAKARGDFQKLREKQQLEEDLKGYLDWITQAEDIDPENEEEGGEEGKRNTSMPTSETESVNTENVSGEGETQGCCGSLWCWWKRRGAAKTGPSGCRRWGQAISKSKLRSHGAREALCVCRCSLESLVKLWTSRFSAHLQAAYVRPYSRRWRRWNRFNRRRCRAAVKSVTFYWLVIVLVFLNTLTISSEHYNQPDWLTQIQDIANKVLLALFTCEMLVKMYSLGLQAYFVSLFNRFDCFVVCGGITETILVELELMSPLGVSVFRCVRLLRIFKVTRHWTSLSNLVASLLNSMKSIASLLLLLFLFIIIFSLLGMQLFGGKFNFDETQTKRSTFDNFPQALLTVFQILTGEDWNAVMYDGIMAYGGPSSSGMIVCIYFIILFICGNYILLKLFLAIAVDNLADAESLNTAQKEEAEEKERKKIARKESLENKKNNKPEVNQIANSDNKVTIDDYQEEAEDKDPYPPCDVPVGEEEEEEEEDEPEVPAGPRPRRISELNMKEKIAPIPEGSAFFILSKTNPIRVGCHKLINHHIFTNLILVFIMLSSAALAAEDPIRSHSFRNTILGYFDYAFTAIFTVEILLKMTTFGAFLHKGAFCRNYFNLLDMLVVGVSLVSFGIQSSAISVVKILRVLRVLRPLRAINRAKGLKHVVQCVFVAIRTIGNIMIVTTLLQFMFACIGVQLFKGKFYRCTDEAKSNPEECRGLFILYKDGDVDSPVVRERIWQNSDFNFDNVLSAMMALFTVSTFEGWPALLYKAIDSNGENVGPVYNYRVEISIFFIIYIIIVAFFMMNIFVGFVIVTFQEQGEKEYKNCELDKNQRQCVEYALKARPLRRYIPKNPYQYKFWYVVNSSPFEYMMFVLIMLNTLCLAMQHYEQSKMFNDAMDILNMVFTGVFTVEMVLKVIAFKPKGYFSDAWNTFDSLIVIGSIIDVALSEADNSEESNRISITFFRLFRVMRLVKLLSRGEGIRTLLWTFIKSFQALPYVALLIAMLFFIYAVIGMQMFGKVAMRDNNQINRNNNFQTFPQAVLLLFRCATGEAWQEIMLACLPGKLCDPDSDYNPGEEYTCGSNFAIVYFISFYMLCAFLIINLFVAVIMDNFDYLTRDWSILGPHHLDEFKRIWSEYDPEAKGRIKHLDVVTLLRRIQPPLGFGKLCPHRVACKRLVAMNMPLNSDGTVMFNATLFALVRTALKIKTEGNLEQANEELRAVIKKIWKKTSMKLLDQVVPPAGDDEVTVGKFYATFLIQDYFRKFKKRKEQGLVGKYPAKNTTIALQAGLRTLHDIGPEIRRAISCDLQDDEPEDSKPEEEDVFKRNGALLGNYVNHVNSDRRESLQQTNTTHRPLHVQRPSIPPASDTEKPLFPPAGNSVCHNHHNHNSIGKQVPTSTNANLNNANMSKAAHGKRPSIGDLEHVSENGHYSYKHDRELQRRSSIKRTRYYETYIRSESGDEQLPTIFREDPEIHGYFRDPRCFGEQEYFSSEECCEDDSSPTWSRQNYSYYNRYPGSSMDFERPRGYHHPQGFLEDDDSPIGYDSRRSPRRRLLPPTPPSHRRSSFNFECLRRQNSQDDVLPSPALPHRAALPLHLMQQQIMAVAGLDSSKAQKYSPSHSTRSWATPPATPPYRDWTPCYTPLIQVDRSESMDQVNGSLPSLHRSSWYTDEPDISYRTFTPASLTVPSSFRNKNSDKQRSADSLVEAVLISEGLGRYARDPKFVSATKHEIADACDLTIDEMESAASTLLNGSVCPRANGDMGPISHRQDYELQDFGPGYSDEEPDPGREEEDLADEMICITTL
smiles,measurement,setting,value
"CCCn1cnc2c(NCc3ccc(C)s3)nc(N[C@H](CC)CO)nc21 [Compound 13x, (2R)-2-[(6-{[(5-Methylthiophen-2-yl)methyl]amino}-9-propyl-9H-purin-2-yl)amino]butan-1-ol]",EC50,"[1]; Cav 1.3, no measureable agonist effect up to 100 μM, read-out: L-type EC50/IC50 affinities",> 100 µM
same,EC50,"[1]; b265, read-out: agonist effects on L-type calcium channels EC50",> 100 µM
same,IC50,"cdk2 cyclinA(h); 20 μM highest concentration used, read-out: Cdk2 EC50/IC50 affinities",3.29 ± 0.43 µM
same,EC50,"cdk2 cyclinA(h); determined in duplicate at 0.2, 2, and 20 μM, read-out: Cdk2 Activity EC50 +/− SEM",3 µM
same,increase of the strength of neuromuscular transmission,[2],about 50%
same,EPP 90% to 10% decay time,[2]; 50 μM,6.79 ± 0.11 ms
same,EPP full width at half maximum (FWHM),[2]; 50 μM,3.90 ± 0.07 ms
same,"final EPP in 50 Hz train of 10 stimuli, normalized to the first EPP",[2]; 50 μM,about 94%
same,mEPP frequency,[2]; 50 μM,10.45 ± 0.64 s⁻¹
same,increase of quantal content when measuring area,[2]; 50 μM vs vehicle,~92%
same,increase of quantal content when measuring peak,[2]; 50 μM vs vehicle,~62%
same,mean change in mEPP amplitude,"[2]; 50 μM, relative to vehicle",1.00±0.02
same,EPP amplitude,"[2]; aBC2 serum NMJs, 30-minute incubation in 50 μM",19.44±0.98 mV
same,10th EPP of 50 Hz train as % of the first EPP (short-term plasticity),LEMS model NMJs,~123%
same,increase in transmitter release from LEMS model NMJs,LEMS model NMJs,~80%
same,EPP amplitude,LEMS model NMJs; LEMS model NMJs,13.75±1.244 mV
same,"quantal content (QC, area of EPP divided by area of mEPP)","LEMS model NMJs; LEMS model NMJs, mean±s.e.m.",48.4±2.7
